Measured values published in patent publication US4728655A, “Sulfonamidines, process for the production thereof and pharmaceutical compositions containing the same” (Ferrer Internacional S.A., priority 1984, dated 1988).
Structures can show the parent of a compound that is named as a salt.

biological target: T1, histamine H2-receptors (Rattus norvegicus, UniProt P25102); assay: blocking activity of histamine H2-receptors: antagonism of histamine-induced gastric acid secretion (perfused stomach, pH recording) in anesthetized rats; assay type: in vivo; conditions: iv, rapid i.v. injection (right femoral vein), histamine hydrochloride infusion 0.0552 mg/min/kg, ethyl carbamate anesthesia, male Sprague-Dawley rats
T1 construct: histamine H2 -receptors was tested in Sprague-Dawley male rats; from tissue; host or cells: stomach of the living anesthetized Sprague-Dawley rat (in vivo perfused stomach)
Procedure: The blocking qctivity of histamine H2 -receptors was tested in Sprague-Dawley male rats weighing 345±38 g. Animals which were subjected to a 24-hour hydric diet were tracheotomized under ethyl carbamate anesthesia (1 ml/100 g, 10% w/V i.p.). After cannulating the esophagus and stomach from duodenum, the gastric contents were drained. Then the esophageal cannual was connected to a peristaltic pump, under prior passage over a thermostatic batch at 37° C., and 1/800N sodium hydroxide solution in water flowed through. The cannula from the stomach was connected by a tube leading to a Ph-meter electrode, and the readings were graphically recorded. pH increase occurring by perfusion of the sodium hydroxide solution at 1.6 ml/min. rate is antagonized by continuous infusion of histamine hydrochloride through a catheter implanted in the right femoral vein (0.0552 mg/min/kg, 2 ml/hour). After calibrating the pH, test drugs are quickly injected into the right femoral vein. Under these conditions, the activities, expressed at ED50, of some compounds according to the present invention, are determined and set forth as follows, with cimetidine being employed for purposes of comparison: […]

T1 sequence (P25102 whole entry, the tested form may be a part): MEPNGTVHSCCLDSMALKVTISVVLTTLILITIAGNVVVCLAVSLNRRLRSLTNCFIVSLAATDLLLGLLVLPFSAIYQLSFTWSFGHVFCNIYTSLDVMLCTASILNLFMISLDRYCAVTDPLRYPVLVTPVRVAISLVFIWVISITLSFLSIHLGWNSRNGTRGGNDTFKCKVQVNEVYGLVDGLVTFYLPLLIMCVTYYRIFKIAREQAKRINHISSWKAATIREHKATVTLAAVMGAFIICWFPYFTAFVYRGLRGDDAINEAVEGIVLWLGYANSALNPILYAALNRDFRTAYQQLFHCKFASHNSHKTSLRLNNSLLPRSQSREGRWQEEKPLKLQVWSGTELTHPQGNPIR

**Q.** For `Cc1ccc(S(=O)(=O)N=CNCCSCc2csc(N=C(N)N)n2)cc1` [Ex. 1, hydrogen maleate, N-p-toluensulphonyl-N'-[2-[[[2-[(aminoiminomethyl)amino]-4-thiazolyl]methyl]thio]ethyl]formamidine hydrogen maleate], which ED50 is on record?
**A.** The ED50 was 0.7 µmol/kg.

**Q.** For `NC(N)=Nc1nc(CSCCNC=NS(=O)(=O)c2ccccc2)cs1` [Ex. 2, hydrogen maleate, N-benzenesulphonyl-N'-[2-[[[2-[(aminoiminomethyl)amino]-4-thiazolyl]methyl]thio]ethyl]formamidine hydrogen maleate], which ED50 is on record?
**A.** The ED50 was 1.77 µmol/kg.

**Q.** `CS(=O)(=O)N=CNCCSCc1csc(N=C(N)N)n1` [Ex. 3, hydrogen maleate, N-methansulphonyl-N'-[2-[[[2-[(aminoiminomethyl)amino]-4-thiazolyl]methyl]thio]ethyl]formamidine hydrogen maleate] was tested. Which ED50 did it give?
**A.** Its ED50 is 1.12 µmol/kg.

**Q.** `NC(N)=Nc1nc(CSCCNC=NS(=O)(=O)c2ccc([N+](=O)[O-])cc2)cs1` [Ex. 4, hydrogen maleate, N-p-nitrobenzenesulphonyl-N'-[2-[[[2-[(aminoiminomethyl)amino]-4-thiazolyl]methyl]thio]ethyl]formamidine hydrogen maleate] was tested. Which ED50 did it give?
**A.** The ED50 was 0.61 µmol/kg.

**Q.** With `NC(N)=Nc1nc(CSCCNC=NS(=O)(=O)c2ccc(Cl)cc2)cs1` [Ex. 5, hydrogen maleate, N-p-chlorobenzenesulphonyl--N'-[2-[[[2-[(aminoiminomethyl)amino]-4-thiazolyl]methyl]thio]ethyl]formamidine hydrogen maleate] as the compound, how does the ED50 read?
**A.** Its ED50 is 0.75 µmol/kg.
